Laboratory results as given in PubChem BioAssay (NCI).
Values joined by “and” are separate entries in the source; they are usually repeats but may differ in a detail not shown here. Equal values may be shown once.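 Each compound was tested at five concentrations against cells in 96-well plates for 48 hours. GI50: concentration for 50% inhibition of growth. At the TGI there is no net growth.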

Legend:
Assay in all cases: growth of human tumour cells (NCI), 48 h
[1] = system: HCC-2998 colon
[2] = system: UACC-257 melanoma
[3] = system: M19-MEL melanoma
[4] = system: MOLT-4 leukemia
[5] = system: DMS 114 small cell lung
[6] = system: NCI-H460 lung
[7] = system: OVCAR-5 ovarian
[8] = system: HT29 colon
[9] = system: CAKI-1 renal
[10] = system: MCF7 breast
[11] = system: MDA-MB-435

Row | SMILES | TGI [1] [µM] | TGI [2] [µM] | TGI [3] [µM] | TGI [4] [µM] | TGI [5] | TGI [6] | TGI [7] [µM] | TGI [8] | TGI [9] [µM] | GI50 [4] [µM] | TGI [10] [µM] | GI50 [6] [µM] | GI50 [7] [µM] | GI50 [8] [µM] | GI50 [9] [µM] | TGI [11] [µM]
1 | Oc1c(Cl)c2nccnc2c2ccccc12 | > 100 | > 100 | > 100 | > 100 | > 100 µM | > 100 µM | > 100 | > 100 µM | – | – | – | – | – | – | – | –
2 | O=c1[nH]cnc2c1nnn2CCCn1nnc2c(=O)[nH]cnc21 | > 100 | > 100 | > 100 | > 100 | > 100 µM | > 100 µM | > 100 | > 100 µM | > 100 | – | – | – | – | – | – | –
3 | CN(C)[C@@H]1C(=O)C(C(N)=O)=C(O)[C@@]2(O)C(=O)C3=C(O)c4c(O)cccc4C[C@H]3C[C@@H]12 | – | – | 3.12 | 5.55 | 6.41 µM | 6.48 µM | – | – | 4.3 | – | – | – | – | – | – | –
4 | COC(=O)/C(=C/c1ccc(OC)cc1)C(C(=O)O)=C(C)C | > 100 | > 100 | > 100 | > 100 | > 100 µM | > 100 µM | > 100 | > 100 µM | > 100 | – | – | – | – | – | – | –
5 | c1cnc2c(c1)-n1cccc1C1(CCOCC1)NN2 | > 100 | – | > 100 | > 100 | > 100 µM | > 100 µM | – | > 100 µM | > 100 | – | – | – | – | – | – | –
6 | C=C1CC2CC[C@@]34C[C@@H]5O[C@@H]6C(O[C@H]7CC[C@H](CC(=O)OC8[C@@H](C)C9OC%10C[C@]%11(C[C@@H]%12O[C@@]%13(C[C@@H](C)[C@@H]%12O%11)C[C@H](C)[C@@H]%11OC%12CC(C(O)CO)OC%12C[C@@H]%11O%13)OC%10CC9O[C@H]8C[C@H]8O[C@@H](CC[C@@H]1O2)C[C@@H](C)C8=C)O[C@@H]7[C@@H]6O3)C5O4 (some centres undefined) | 0.00865 | – | – | 0.104 | 0.00428 µM and 0.0198 µM | 0.00317 µM and 0.028 µM | > 1.48 | 0.00784 µM and 0.00321 µM | > 1.48 | < 0.000148 | > 1.48 | < 0.000148 | > 1.48 | < 0.000148 | < 0.000148 | –
7 | O=C(NCCNCCO)N/N=C/c1cccc([N+](=O)[O-])c1 | – | > 100 | > 100 | > 100 | > 100 µM | > 100 µM | > 100 | > 100 µM | > 100 | – | – | – | – | – | – | –
8 | C=CCN1C(=O)CS/C1=N\NC(=O)c1c(C)nc2sccn12 | > 100 | > 100 | > 100 | > 100 | > 100 µM | > 100 µM | > 100 | > 100 µM | > 100 | – | – | – | – | – | – | –
9 | C=C/C(C)=C/[C@H](C)C(=O)C[C@H](O)CC1CC(=O)NC(=O)C1 | > 100 | 97.9 | > 100 | > 100 | > 100 µM | > 100 µM | > 100 | > 100 µM | > 100 | – | > 100 | – | – | – | – | –
10 | COC1/C=C\C=C(/C)C(=O)NC2=CC(=O)C(NCCCl)=C(CC(C)CC(OC)C(O)C(C)/C=C(/C)C1OC(N)=O)C2=O (centres undefined) | 1 | 0.911 | 1.57 | 5.13 | 1.6 µM | 2.52 µM | 11.7 | 1.92 µM | 8.67 | – | 2.19 | – | – | – | – | 3.72
11 | O=C(CCN1CCCCC1CCO)Nc1ccc2c(c1)C(=O)c1ccc(NC(=O)CCN3CCCCC3CCO)cc1C2=O (centres undefined) | > 100 | 20.6 | 74.9 | 39.1 | 14.7 µM | 20.4 µM | 61.2 | 20.6 µM | 57.5 | – | – | – | – | – | – | –
12 | O=S(=O)(O)c1cc(Cl)c(O)c2ncc(Cl)cc12 | > 100 | > 100 | – | 66.4 | – | > 100 µM | > 100 | > 100 µM | > 100 | – | > 100 | – | – | – | – | > 100
13 | CC1=C/C(=C(\c2ccc(N(C)C)cc2)c2ccc([N+](C)(C)C)cc2)C=CC1=[N+](C)C | 48.7 | 27.9 | 20.3 | 28.2 | 16.1 µM | 22.4 µM | 69 | 77.9 µM | 41.1 | – | – | – | – | – | – | –
14 | COc1cc2c(cc1O)[C@H](C)C(c1ccc(Cl)cc1)O2 (some centres undefined) | 36.1 | > 100 | 33 | 40.9 | 30.8 µM | 33.4 µM | > 100 | > 100 µM | 49.2 | – | – | – | – | – | – | –
15 | COc1ccc(C[C@@H]2CN(C(=O)c3ccccc3)[C@H](Cc3ccc(O)cc3)CN2C(=O)c2ccccc2)cc1Br | > 100 | > 100 | – | > 100 | – | > 100 µM | > 100 | > 100 µM | > 100 | – | > 100 | – | – | – | – | > 100
16 | CC1C(c2ccc(N(C)C)cc2)c2cc3c(cc2OC1N1CCCC1)OCO3 (centres undefined) | > 100 | > 100 | – | > 100 | – | > 95.3 µM | > 100 | > 81.9 µM | > 100 | – | > 31.6 | – | – | – | – | 60.4
17 | N#CI1OC(=O)c2ccccc21 | > 100 | > 100 | – | > 100 | – | > 100 µM | > 100 | > 100 µM | > 100 | – | > 100 | – | – | – | – | > 100
18 | On1c(-c2ccccc2)c(-c2c(-c3ccccc3)n(O)c3ccccc23)c2ccccc21 | – | 88.9 | > 100 | > 100 | 66 µM | 49.4 µM | – | > 100 µM | – | – | – | – | – | – | – | –
19 | CSc1n[nH]c(N)c1C(=O)Nc1ccc(Cl)cc1 | > 100 | > 100 | – | > 100 | – | > 100 µM | > 100 | > 100 µM | > 100 | – | > 100 | – | – | – | – | > 100
20 | CCOC(=O)NNC(=O)NCCNC(=O)NNC(=O)OCC | > 100 | > 100 | – | > 100 | – | > 100 µM | > 100 | > 100 µM | > 100 | – | > 100 | – | – | – | – | > 100
21 | c1ccc2[nH]c(-c3nc4ccccc4o3)nc2c1 | > 100 | > 100 | > 100 | > 100 | > 100 µM | > 100 µM | > 100 | > 100 µM | – | – | – | – | – | – | – | –
22 | CS(=O)(=O)NNS(=O)(=O)c1ccc(Br)cc1 | > 100 | > 100 | > 100 | – | > 100 µM | > 100 µM | > 100 | > 100 µM | > 100 | – | – | – | – | – | – | –
23 | O=S(=O)(O)c1ccc(NN(c2c(O)ccc3ccccc23)S(=O)(=O)O)cc1 | > 100 | > 100 | – | > 100 | – | > 100 µM | > 100 | > 100 µM | > 100 | – | > 100 | – | – | – | – | > 100
24 | c1cc(-c2cscc2-c2ccsc2)cs1 | 91.8 | > 100 | – | > 100 | – | > 100 µM | > 100 | > 100 µM | > 100 | – | > 100 | – | – | – | – | > 100
25 | c1ccc(COc2ccc(C[P+](c3ccccc3)(c3ccccc3)c3ccccc3)cc2)cc1 | 4.81 | 11.6 | – | 1.94 | – | 3.81 µM | 2.2 | 2.02 µM | 20.2 | – | 1.52 | – | – | – | – | 1.7
26 | COc1ccc(C2SCC(=O)N2N=C2NC(=O)CC(=O)N2)cc1 (centres undefined) | > 100 | > 100 | – | > 100 | – | > 100 µM | > 100 | > 100 µM | > 100 | – | > 100 | – | – | – | – | > 100
27 | O=C(Cc1ccc(Cl)c(Cl)c1)NCCCN1CCN(CCCN2CCCCC2)CC1 | 9.92 | 19.6 | – | 28.8 | – | 33.6 µM | 46.6 | 29.9 µM | 41.3 | – | 34.2 | – | – | – | – | 4.11
28 | CN1CC(c2ccccc2)=Cc2c1ccc(N)c2N=N | > 100 | > 100 | – | > 100 | – | > 100 µM | > 100 | > 100 µM | 67.9 | – | > 100 | – | – | – | – | > 100
29 | COc1c(C2(c3ccc(F)cc3)SCCCS2)c(=O)c1=O | > 100 | > 100 | – | > 100 | – | > 100 µM | > 100 | > 100 µM | > 100 | – | > 100 | – | – | – | – | > 100
30 | Oc1c(OCc2nnc(CCCCCCCCc3nnc(COc4ccc5ccccc5c4O)n3Nc3ccccc3)n2Nc2ccccc2)ccc2ccccc12 | 21.8 | 25.7 | – | > 100 | – | 20.5 µM | 28.5 | 26.2 µM | 13.8 | – | 68.1 | – | – | – | – | 19.3
